Settings: 101.33 kPa, Crystal; for molar entropy: Small (less than 1 g) adiabatic calorimetry; for mass density: X-ray diffraction

Nc1nc2ncc(CNc3ccc(C(=O)N[C@@H](CCC(=O)O)C(=O)O)cc3)nc2c(=O)[nH]1.O.O [folic acid dihydrate]
Settings | mass density [kg/m3] | molar entropy [J/K/mol]
4 K | – | 0.0255
5 K | – | 0.0623
6 K | – | 0.1291
7 K | – | 0.2371
8 K | – | 0.3983
9 K | – | 0.6346
10 K | – | 0.962
15 K | – | 3.956
20 K | – | 8.733
25 K | – | 15.36
30 K | – | 23.55
35 K | – | 32.93
40 K | – | 43.15
45 K | – | 53.9
50 K | – | 65
60 K | – | 87.81
70 K | – | 111.2
80 K | – | 134.6
90 K | – | 157.6
100 K | – | 180.2
110 K | – | 202.6
120 K | – | 224.6
130 K | – | 246.2
140 K | – | 267.7
150 K | 1556 | 288.9
160 K | – | 309.9
170 K | – | 330.6
175 K | 1554 | –
180 K | – | 351.2
190 K | – | 371.6
200 K | 1552 | 391.9
210 K | – | 412
220 K | – | 432
225 K | 1550 | –
230 K | – | 451.9
240 K | – | 471.7
250 K | 1549 | 491.4
260 K | – | 511
270 K | – | 530.5
273.15 K | – | 536.6
275 K | 1546 | –
280 K | – | 549.9
290 K | – | 569.3
298.15 K | – | 585
300 K | 1543 | 588.6
310 K | – | 607.8
320 K | – | 627
325 K | 1542 | –
330 K | – | 646.1
333 K | – | 651.9
350 K | 1540 | –
375 K | 1537 | –

Source: the NIST ThermoML archive (doi:10.1016/j.jct.2016.05.001)
